ChEMBL document CHEMBL3751837, “Synthesis of tetravalent LacNAc-glycoclusters as high-affinity cross-linker against Erythrina cristagalli agglutinin” (Bioorg Med Chem, 2016)
Active and inactive are the calls of the source. The calls are words filed in the database; no cut-off is given here.

Columns and labels:
Erythrina crista-galli [1] = assay: Binding affinity to Erythrina crista-galli agglutinin at 0.625 to 480 uM by dynamic light scattering analysis
Erythrina crista-galli [2] = assay: Inhibition of Erythrina crista-galli agglutinin-mediated hemagglutination assessed as concentration of LacNAc unit after 40 mins in presence of rabbit erythrocytes; assay type: cell-based
Erythrina crista-galli [3] = assay: Binding affinity to Erythrina crista-galli agglutinin at 0.625 to 480 uM by quantitative precipitation assay
[4] = Binding affinity to Erythrina crista-galli agglutinin by isothermal titration calorimetry analysis
Erythrina crista-galli [5] = assay: Inhibition of Erythrina crista-galli agglutinin-mediated hemagglutination after 40 mins in presence of rabbit erythrocytes; assay type: cell-based
Erythrina crista-galli [6] = assay: Binding affinity to Erythrina crista-galli agglutinin assessed as particle size by measuring DLS volume hydrodynamic diameter centered positions at 5 uM by dynamic light scattering analysis (reference value: 8.2 nanometer)
Erythrina crista-galli [7] = assay: Inhibition of Erythrina crista-galli agglutinin-mediated hemagglutination assessed as concentration of LacNAc unit after 40 mins in presence of rabbit erythrocytes relative to LacNAc; assay type: cell-based
Erythrina crista-galli [8] = assay: Binding affinity to Erythrina crista-galli agglutinin assessed as particle size by measuring DLS volume hydrodynamic diameter centered positions at 20 uM by dynamic light scattering analysis (reference value: 8.2 nanometer)
Erythrina crista-galli [9] = assay: Binding affinity to Erythrina crista-galli agglutinin assessed as particle size by measuring DLS volume hydrodynamic diameter centered positions at 10 uM by dynamic light scattering analysis (reference value: 8.2 nanometer)
Erythrina crista-galli [10] = assay: Binding affinity to Erythrina crista-galli agglutinin by isothermal titration calorimetry analysis relative to 3-TFAP-beta-LacNAc
Erythrina crista-galli [11] = assay: Binding affinity to Erythrina crista-galli agglutinin assessed as formation of large aggregate at 5 to 10 uM by dynamic light scattering analysis
Erythrina crista-galli [12] = assay: Binding affinity to Erythrina crista-galli agglutinin assessed as particle size by measuring DLS volume hydrodynamic diameter centered positions at 240 uM by dynamic light scattering analysis (reference value: 8.2 nanometer)
Erythrina crista-galli [13] = assay: Binding affinity to Erythrina crista-galli agglutinin assessed as particle size by measuring DLS volume hydrodynamic diameter centered positions at 2.5 uM by dynamic light scattering analysis (reference value: 8.2 nanometer)

CC(=O)N[C@H]1[C@H](OCCCNC(=O)C[C@H](NC(=O)CCCCCCCCCCCCCCCCC(=O)N[C@@H](CC(=O)NCCCO[C@@H]2O[C@H](CO)[C@@H](O[C@@H]3O[C@H](CO)[C@@H](O)[C@H](O)[C@H]3O)[C@H](O)[C@H]2NC(C)=O)C(=O)NCCCO[C@@H]2O[C@H](CO)[C@@H](O[C@@H]3O[C@H](CO)[C@@H](O)[C@H](O)[C@H]3O)[C@H](O)[C@H]2NC(C)=O)C(=O)NCCCO[C@@H]2O[C@H](CO)[C@@H](O[C@@H]3O[C@H](CO)[C@@H](O)[C@H](O)[C@H]3O)[C@H](O)[C@H]2NC(C)=O)O[C@H](CO)[C@@H](O[C@@H]2O[C@H](CO)[C@@H](O)[C@H](O)[C@H]2O)[C@@H]1O
Activity (Erythrina crista-galli [1]): Active
MIC (Erythrina crista-galli [2]): 0.76 µM
Activity (Erythrina crista-galli [3]): 95%
Kd [4]: 2.5 µM
MIC (Erythrina crista-galli [5]): 0.19 µM
Activity (Erythrina crista-galli [6]): 1110 nm
Ratio (Erythrina crista-galli [7]): 32
Activity (Erythrina crista-galli [8]): 2030 nm
Activity (Erythrina crista-galli [9]): 1510 nm
Ratio (Erythrina crista-galli [10]): 14.1
Activity (Erythrina crista-galli [11]): Active
Activity (Erythrina crista-galli [12]): 788 nm

CC(=O)N[C@H]1[C@H](OCCCCCNC(=O)CCCCCNC(=O)CCCSSCCCC(=O)NCCCCCC(=O)NCCCCCO[C@@H]2O[C@H](CO)[C@@H](O[C@@H]3O[C@H](CO)[C@@H](O)[C@H](O)[C@H]3O)[C@H](O)[C@H]2NC(C)=O)O[C@H](CO)[C@@H](O[C@@H]2O[C@H](CO)[C@@H](O)[C@H](O)[C@H]2O)[C@@H]1O
MIC (Erythrina crista-galli [2]): 3 µM
Activity (Erythrina crista-galli [3]): 41%
Kd [4]: 15.6 µM
MIC (Erythrina crista-galli [5]): 1.5 µM
Ratio (Erythrina crista-galli [7]): 8
Ratio (Erythrina crista-galli [10]): 2.3

CC(=O)N[C@H]1[C@H](OCCCNC(=O)C[C@H](NC(=O)CCCCCCCCC(=O)N[C@@H](CC(=O)NCCCO[C@@H]2O[C@H](CO)[C@@H](O[C@@H]3O[C@H](CO)[C@@H](O)[C@H](O)[C@H]3O)[C@H](O)[C@H]2NC(C)=O)C(=O)NCCCO[C@@H]2O[C@H](CO)[C@@H](O[C@@H]3O[C@H](CO)[C@@H](O)[C@H](O)[C@H]3O)[C@H](O)[C@H]2NC(C)=O)C(=O)NCCCO[C@@H]2O[C@H](CO)[C@@H](O[C@@H]3O[C@H](CO)[C@@H](O)[C@H](O)[C@H]3O)[C@H](O)[C@H]2NC(C)=O)O[C@H](CO)[C@@H](O[C@@H]2O[C@H](CO)[C@@H](O)[C@H](O)[C@H]2O)[C@@H]1O
MIC (Erythrina crista-galli [2]): 3 µM
Activity (Erythrina crista-galli [3]): 95%
Kd [4]: 3.9 µM
MIC (Erythrina crista-galli [5]): 0.75 µM
Ratio (Erythrina crista-galli [7]): 8
Ratio (Erythrina crista-galli [10]): 9

CC(=O)N[C@H]1[C@H](OCCCNC(=O)C(F)(F)F)O[C@H](CO)[C@@H](O[C@@H]2O[C@H](CO)[C@@H](O)[C@H](O)[C@H]2O)[C@@H]1O
Activity (Erythrina crista-galli [3]): inactive
Kd [4]: 35.2 µM

CC(=O)N[C@H]1[C@H](OCCCCCNC(=O)CCCSSCCCC(=O)NCCCCCO[C@@H]2O[C@H](CO)[C@@H](O[C@@H]3O[C@H](CO)[C@@H](O)[C@H](O)[C@H]3O)[C@H](O)[C@H]2NC(C)=O)O[C@H](CO)[C@@H](O[C@@H]2O[C@H](CO)[C@@H](O)[C@H](O)[C@H]2O)[C@@H]1O
MIC (Erythrina crista-galli [2]): 3 µM
Activity (Erythrina crista-galli [3]): 20%
Kd [4]: 17.5 µM
MIC (Erythrina crista-galli [5]): 1.5 µM
Ratio (Erythrina crista-galli [7]): 8
Ratio (Erythrina crista-galli [10]): 2

CC(=O)N[C@H]1[C@H](OCCOCCNC(=O)CCCCCNC(=O)CN(CCOCCOCCN(CC(=O)NCCCCCC(=O)NCCOCCO[C@@H]2O[C@H](CO)[C@@H](O[C@@H]3O[C@H](CO)[C@@H](O)[C@H](O)[C@H]3O)[C@H](O)[C@H]2NC(C)=O)CC(=O)NCCCCCC(=O)NCCOCCO[C@@H]2O[C@H](CO)[C@@H](O[C@@H]3O[C@H](CO)[C@@H](O)[C@H](O)[C@H]3O)[C@H](O)[C@H]2NC(C)=O)CC(=O)NCCCCCC(=O)NCCOCCO[C@@H]2O[C@H](CO)[C@@H](O[C@@H]3O[C@H](CO)[C@@H](O)[C@H](O)[C@H]3O)[C@H](O)[C@H]2NC(C)=O)O[C@H](CO)[C@@H](O[C@@H]2O[C@H](CO)[C@@H](O)[C@H](O)[C@H]2O)[C@@H]1O
MIC (Erythrina crista-galli [2]): 6 µM
Activity (Erythrina crista-galli [3]): Active
Kd [4]: 6 µM
MIC (Erythrina crista-galli [5]): 1.5 µM
Ratio (Erythrina crista-galli [7]): 4
Ratio (Erythrina crista-galli [10]): 5.9

CC(=O)N[C@H]1[C@H](OCCOCCNC(=O)CN(CCOCCOCCN(CC(=O)NCCOCCO[C@@H]2O[C@H](CO)[C@@H](O[C@@H]3O[C@H](CO)[C@@H](O)[C@H](O)[C@H]3O)[C@H](O)[C@H]2NC(C)=O)CC(=O)NCCOCCO[C@@H]2O[C@H](CO)[C@@H](O[C@@H]3O[C@H](CO)[C@@H](O)[C@H](O)[C@H]3O)[C@H](O)[C@H]2NC(C)=O)CC(=O)NCCOCCO[C@@H]2O[C@H](CO)[C@@H](O[C@@H]3O[C@H](CO)[C@@H](O)[C@H](O)[C@H]3O)[C@H](O)[C@H]2NC(C)=O)O[C@H](CO)[C@@H](O[C@@H]2O[C@H](CO)[C@@H](O)[C@H](O)[C@H]2O)[C@@H]1O
MIC (Erythrina crista-galli [2]): 12 µM
Activity (Erythrina crista-galli [3]): Active
Kd [4]: 7.2 µM
MIC (Erythrina crista-galli [5]): 3 µM
Ratio (Erythrina crista-galli [7]): 2
Ratio (Erythrina crista-galli [10]): 4.9

CC(=O)N[C@H]1[C@H](OCCCNC(=O)C[C@H](NC(=O)CCCCCNC(=O)CCCCCCCCCCC(=O)NCCCCCC(=O)N[C@@H](CC(=O)NCCCO[C@@H]2O[C@H](CO)[C@@H](O[C@@H]3O[C@H](CO)[C@@H](O)[C@H](O)[C@H]3O)[C@H](O)[C@H]2NC(C)=O)C(=O)NCCCO[C@@H]2O[C@H](CO)[C@@H](O[C@@H]3O[C@H](CO)[C@@H](O)[C@H](O)[C@H]3O)[C@H](O)[C@H]2NC(C)=O)C(=O)NCCCO[C@@H]2O[C@H](CO)[C@@H](O[C@@H]3O[C@H](CO)[C@@H](O)[C@H](O)[C@H]3O)[C@H](O)[C@H]2NC(C)=O)O[C@H](CO)[C@@H](O[C@@H]2O[C@H](CO)[C@@H](O)[C@H](O)[C@H]2O)[C@@H]1O
Activity (Erythrina crista-galli [1]): Active
MIC (Erythrina crista-galli [2]): 0.56 µM
Activity (Erythrina crista-galli [13]): 1880 nm
Activity (Erythrina crista-galli [3]): 95%
Kd [4]: 2.3 µM
MIC (Erythrina crista-galli [5]): 0.14 µM
Activity (Erythrina crista-galli [6]): 1750 nm
Ratio (Erythrina crista-galli [7]): 43
Activity (Erythrina crista-galli [8]): 2280 nm
Ratio (Erythrina crista-galli [10]): 15.3

CC(=O)N[C@H]1[C@H](OCCCNC(=O)C[C@H](NC(=O)CCCCC(=O)N[C@@H](CC(=O)NCCCO[C@@H]2O[C@H](CO)[C@@H](O[C@@H]3O[C@H](CO)[C@@H](O)[C@H](O)[C@H]3O)[C@H](O)[C@H]2NC(C)=O)C(=O)NCCCO[C@@H]2O[C@H](CO)[C@@H](O[C@@H]3O[C@H](CO)[C@@H](O)[C@H](O)[C@H]3O)[C@H](O)[C@H]2NC(C)=O)C(=O)NCCCO[C@@H]2O[C@H](CO)[C@@H](O[C@@H]3O[C@H](CO)[C@@H](O)[C@H](O)[C@H]3O)[C@H](O)[C@H]2NC(C)=O)O[C@H](CO)[C@@H](O[C@@H]2O[C@H](CO)[C@@H](O)[C@H](O)[C@H]2O)[C@@H]1O
MIC (Erythrina crista-galli [2]): 6 µM
Activity (Erythrina crista-galli [3]): 95%
Kd [4]: 7.2 µM
MIC (Erythrina crista-galli [5]): 1.5 µM
Ratio (Erythrina crista-galli [7]): 4
Ratio (Erythrina crista-galli [10]): 4.9

CC(=O)N[C@H]1C(O)O[C@H](CO)[C@@H](O[C@@H]2O[C@H](CO)[C@@H](O)[C@H](O)[C@H]2O)[C@@H]1O (some centres not stated)
MIC (Erythrina crista-galli [2]): 24 µM
MIC (Erythrina crista-galli [5]): 24 µM
